Each structure is given as a SMILES string.

A short description of this data set: Human HepG2 cell viability assay in 384 well format. It is filed as toxicity, cell-based. Also on record: dose 125 nL, time 70.5 hour; concentration not given beside the values. As to conditions: HepG2 cells, read-out: Inhibition.
`Cc1cccc(CNC(=O)C2CCC(=O)N(Cc3ccccc3F)C2)n1` (centres undefined): the cytotoxicity at 70.5 h was -9.23%.

Consider `O=C(O)c1cc(-c2ccoc2)cc(S(=O)(=O)NC2CC2)c1`, for which the cytotoxicity at 70.5 h was -6.76%.

With `Cc1ccc(CN2CCC3(CCCN(Cc4ccc(F)c(F)c4)C3)C2)o1` (centres undefined), the cytotoxicity at 70.5 h turned out to be 0.359%.

`CCN1CC(C(=O)N2CC(Oc3ccccc3Cl)C2)CCC1=O` (centres undefined): the cytotoxicity at 70.5 h was -1.72%.

Regarding `CCNC(=O)N1CCC(Cc2cccc(C(N)=O)c2)C1` (centres undefined), the cytotoxicity at 70.5 h was -5.09%.

As for `CC(C)(CN1CCC(Cc2ccc(C(=O)O)cc2)C1)N1CCOCC1` (centres undefined), the cytotoxicity at 70.5 h is -12.2%.

Take `COC(=O)c1ccccc1C(=O)N(CCN(C)C)Cc1sccc1C`: the cytotoxicity at 70.5 h was -7.74%.

As to `Cc1cccc2c1nc(CCO)n2-c1ccc(N)nc1`, the cytotoxicity at 70.5 h was -8.34%.

As for `Cc1nc(-c2cc(Cl)cc3c2OC(CN)C3)c[nH]1` (centres undefined), the cytotoxicity at 70.5 h worked out at 11.1%.

Regarding `Cc1cc(C)n(C2CN(C(=O)Cn3c(=O)c(C)nc4ccccc43)C2)n1`, the cytotoxicity at 70.5 h is 30%.

Regarding `Cc1cc(N2CCCC(N(C)C)C2)n2nccc2n1` (centres undefined), the cytotoxicity at 70.5 h stood at 9.89%.

On to `CCN1CCCC(C)(C(=O)NCCc2nnc(C)[nH]2)C1` (centres undefined), for which the cytotoxicity at 70.5 h is -3.07%.

Consider `CC(C1CCN(Cc2cnc(-c3cccs3)nc2)CC1)N(C)C` (centres undefined), for which the cytotoxicity at 70.5 h was determined as 28.9%.

As for `Cc1ccccc1SC1CCN(C(=O)[C@H]2[C@@H]3CNC[C@@H]32)CC1`, the cytotoxicity at 70.5 h was -1.38%.

`Cn1cc(-c2c(C#N)c(N)nc3c2CCc2[nH]ccc2-3)cn1`: the cytotoxicity at 70.5 h came to 17.1%.

Take `CCN(C)CC(C)Cn1cnc(-c2ccccc2)c1-c1cncn1CC` (centres undefined): the cytotoxicity at 70.5 h is -10.8%.

Turning to `O=C(Nc1cnc2n1CCCC2)c1cccc(NC(=O)C2CCCC2)c1`, the cytotoxicity at 70.5 h is -8.35%.

For the compound `CN(C)C(=O)c1cccnc1-c1ccc2c(c1)OCO2`, the cytotoxicity at 70.5 h is -11.3%.

For the compound `O=C1O[C@@H]2CN(c3ccc(Cl)cn3)C[C@@H]2N1CCc1ccc(F)cc1`, the cytotoxicity at 70.5 h is -8.87%.

On to `Cc1ccccc1CN(Cc1ccc(S(C)(=O)=O)cc1)CC(C)C`, for which the cytotoxicity at 70.5 h stood at 6.09%.

For the compound `CCNc1ccnc(NCC2CNCCO2)n1` (centres undefined), the cytotoxicity at 70.5 h was -3.23%.

On to `COCCn1ccnc1-c1[nH]cnc1C`, for which the cytotoxicity at 70.5 h was 6.67%.

Turning to `CC(C)(C)c1ncc(S(C)(=O)=O)c(C2CCCNC2)n1` (centres undefined), the cytotoxicity at 70.5 h is -6.75%.

Consider `CC(c1cccnc1)N(C)Cc1cc(O)c2cc(F)ccc2n1` (centres undefined), for which the cytotoxicity at 70.5 h is -6.6%.

Turning to `COc1cccc2ccc(CN3CCN(c4ccncc4)CC3)nc12`, the cytotoxicity at 70.5 h was -9.89%.

Regarding `CCCNc1ncc(-c2cc(C3CC3)nc(N)c2C#N)cn1`, the cytotoxicity at 70.5 h is -12.1%.

Turning to `CC1=C(C(=O)N2CCCC(Cn3cc(CO)nn3)C2)OCCO1` (centres undefined), the cytotoxicity at 70.5 h is -2.23%.

Regarding `NCCc1n[nH]c(=O)n1-c1cccc(Cl)c1Cl`, the cytotoxicity at 70.5 h is -3.82%.

On to `O=C(CCSc1ccc2c(c1)OCCO2)NCC1CCS(=O)(=O)C1` (centres undefined), for which the cytotoxicity at 70.5 h is -3.43%.

Take `Cc1cc(C(=O)N2CCCC3(CN(C)C(=O)O3)C2)c2ccc(F)cc2n1` (centres undefined): the cytotoxicity at 70.5 h worked out at 16.1%.

On to `Cc1n[nH]c(CN2CCN(CC3CC3)[C@@H]3CS(=O)(=O)C[C@@H]32)n1`, for which the cytotoxicity at 70.5 h came to 44.8%.

Consider `COC[C@@H]1CCCN1C(=O)c1cc(-c2ccc(OC)cc2)n[nH]1`, for which the cytotoxicity at 70.5 h is -7.57%.

In the case of `COc1ccc(-c2noc(CN3CCN(c4cnccn4)CC3)n2)cc1`, the cytotoxicity at 70.5 h is -16.7%.

For `CCn1ccnc1CN1CCC(=O)N(CC2CC2)C(C(C)C)C1` (centres undefined), the cytotoxicity at 70.5 h turned out to be 31.2%.

For `NC(=O)CN1CCCC(C(=O)N2CCC(Oc3ncccn3)CC2)C1` (centres undefined), the cytotoxicity at 70.5 h was -2.67%.

`Cc1ccc(C(C(=O)NCCc2nc(C)cc(C)n2)N(C)C)cc1` (centres undefined): the cytotoxicity at 70.5 h is -4.39%.

As to `CCC(Cn1ccc2[nH]c(=O)c(C#N)cc2c1=O)OC` (centres undefined), the cytotoxicity at 70.5 h is -6.98%.

On to `CCc1nnc(CN2CCc3[nH]c(-c4ccc(OC)cc4)nc3C2)o1`, for which the cytotoxicity at 70.5 h is -9.04%.

On to `COCC1CCN(S(=O)(=O)c2ccc(C(=O)NCC(F)F)cc2)C1` (centres undefined), for which the cytotoxicity at 70.5 h amounted to 9.26%.

The values above are taken from ChEMBL document CHEMBL3507680, “University of Dundee, Gates Library screen for HepG2 cell viability”.
